Read-outs that look alike come from different tables or passages of the source.

This note sets out measurements from publication PMC7889231 (Journal of Enzyme Inhibition and Medicinal Chemistry, 2021).

Data set [1] relates to HepG-2. Briefly: MTT anti-proliferative assay, HepG-2. The settings on record: for IC50: Homo sapiens. The data set is classed as cell-based, human. Background: Tetrazolium dyes change colour on reduction, which living cells bring about.
Data set [2] concerns HCT-116. Briefly: MTT anti-proliferative assay, HCT-116. The format is cell-based, human. The following applies: for IC50: Homo sapiens.
In data set [3] the test system is MCF-7. Briefly: MTT anti-proliferative assay, MCF-7. The format is cell-based, human. The following applies: Homo sapiens.
Data set [4] concerns tubulin. Briefly: In vitro tubulin polymerisation inhibition (turbidimetric, fluorescent plate reader). The format is biochemical. The following applies: mean of three experiments. The procedure:
The inhibition assay on microtubule polymerisation was evaluated turbidimetrically using a fluorescent plate reader.
The effect of the synthesised compounds on tubulin polymerisation was assessed turbidimetrically using a fluorescent plate reader method. The complete procedure was depected in Supplementary data.

The test system of data set [5] is HepG-2, HCT-116, and MCF-7. Briefly: MTT anti-proliferative assay, ranges stated over several cell lines. The format is cell-based. The settings on record: Homo sapiens.
Setting [6] is: HepG2, MTT, mean ± SD of three experiments, read-out: IC50 HepG-2.
The mark [7] stands for this setting: HCT-116, MTT, mean ± SD of three experiments, read-out: IC50 HCT-116.
The mark [8] stands for this setting: MCF7, MTT, mean ± SD of three experiments, read-out: IC50 MCF-7.
Where [9] appears, read: range over HepG-2, HCT-116 and MCF-7 and over the listed compounds, read-out: IC50 values ranging (all tested cell lines).
Where [10] appears, read: range over HCT-116 and MCF-7 and over the listed compounds, read-out: IC50 values ranging (HCT-116 and MCF-7).

In general, IC50 refers to the concentration that inhibits the measured activity by half. In general, melting point refers to the temperature, or range, at which the solid turns liquid. Regarding `COc1ccc2nc(Cl)c(C3CC(c4ccc(Cl)cc4)=NN3c3ccccc3)cc2c1` (stereo not drawn) [Compound 20, 2-Chloro-3-[3–(4-chlorophenyl)-1-phenyl-4,5-dihydro-1H-pyrazol-5-yl]-6-methoxyquinoline], the melting point was in the range of 145 to 146 °C. Also, the IC50 in data set [1] (setting [6]) is 2.6 ± 0.1 µM. Further, in data set [1] (ratio of IC50 to colchicine), the “times of colchicine cytotoxic activity, HepG-2” value amounted to 5.15 times. Besides, in data set [2] (setting [7]), the IC50 turned out to be 1.81 ± 0.1 µM. Moreover, the “times of colchicine cytotoxic activity, HCT-116” value in data set [2] (ratio of IC50 to colchicine) was determined as 2.84 times. Further, the IC50 in data set [3] (setting [8]) was 4.51 ± 0.2 µM. The molecule also returned an IC50 in data set [4] of 0.0368 µM. The IC50 in data set [5] (setting [9]) lay in the range of 1.78 to 9.19 µM.

For the molecule `COc1ccc2nc(Cl)c(-c3cc(-c4ccc(N)cc4)nc(=O)[nH]3)cc2c1` [Compound 33, 4–(4-Aminophenyl)-6–(2-chloro-6-methoxyquinolin-3-yl)pyrimidin-2(1H)-one], the melting point fell in the range of 171 to 172 °C. The IC50 in data set [1] (setting [6]) was found to be 9.37 ± 0.4 µM. Also, in data set [2] (setting [7]), the IC50 came to 8.5 ± 0.2 µM. For the same molecule, the IC50 in data set [3] (setting [8]) came out at 10.3 ± 0.5 µM. In addition, the IC50 in data set [4] turned out to be 0.0472 µM. The IC50 in data set [5] (setting [10]) fell in the range of 6.48 to 10.3 µM.

`COc1ccc2nc(Cl)c(C3CC(c4ccc(N)cc4)=NN3c3ccccc3)cc2c1` (stereo not drawn) [Compound 21, 4-[5–(2-Chloro-6-methoxyquinolin-3-yl)-1-phenyl-4,5-dihydro-1H-pyrazol-3-yl]aniline] displayed a melting point of 136 to 137 °C. Moreover, the IC50 in data set [1] (setting [6]) is 7.32 ± 0.2 µM. In data set [2] (setting [7]), the IC50 was 8.91 ± 0.3 µM. Moreover, the IC50 in data set [3] (setting [8]) was 9.19 ± 0.3 µM. In addition, the IC50 in data set [4] is 0.00911 µM. In addition, in data set [5] (setting [9]), the IC50 was 1.78 to 9.19 µM.

Consider `COc1ccc2nc(Cl)c(C3CC(c4ccc(Cl)cc4)=NN3C(N)=S)cc2c1` (stereo not drawn) [Compound 14, 5–(2-Chloro-6-methoxyquinolin-3-yl)-3–(4-chlorophenyl)-4,5-dihydro-1H-pyrazole-1-carbothioamide], for which the melting point is 136 to 137 °C. For the same molecule, in data set [1] (setting [6]), the IC50 turned out to be 8.92 ± 0.4 µM. In addition, the IC50 in data set [2] (setting [7]) amounted to 7.62 ± 0.4 µM. Further, the IC50 in data set [3] (setting [8]) worked out at 10 ± 0.4 µM. This molecule gave an IC50 in data set [4] of 0.0501 µM. For the same molecule, the IC50 in data set [5] (setting [10]) lay within 6.48 to 10.3 µM.

On to `COc1ccc2nc(Cl)c(C3CC(c4cc(OC)c(OC)c(OC)c4)=NN3c3ccccc3)cc2c1` (stereo not drawn) [Compound 22, 2-Chloro-6-methoxy-3-[1-phenyl-3–(3,4,5-trimethoxyphenyl)-4,5-dihydro-1H-pyrazol-5-yl]quinoline], for which the melting point was in the range of 136 to 137 °C. Also, in data set [1] (setting [6]), the IC50 is 4.76 ± 0.2 µM. The IC50 in data set [2] (setting [7]) is 3.04 ± 0.3 µM. Further, the IC50 in data set [3] (setting [8]) turned out to be 6.45 ± 0.2 µM. In data set [4], this molecule had an IC50 of 0.0191 µM. Besides, in data set [5] (setting [9]), the 50% inhibitory concentration (IC50) was in the range of 1.78 to 9.19 µM.

In the case of `COc1ccc2nc(Cl)c(C3CC(c4ccc(N)cc4)=NN3c3ccc([N+](=O)[O-])cc3[N+](=O)[O-])cc2c1` (stereo not drawn) [Compound 24, 4-[5–(2-Chloro-6-methoxyquinolin-3-yl)-1–(2,4-dinitrophenyl)-4,5-dihydro-1H-pyrazol-3-yl]aniline], the melting point is 139 to 140 °C. Moreover, the IC50 in data set [1] (HepG2, read-out: IC50 HepG-2) turned out to be 3.14 ± 0.1 µM. Also, in data set [2] (HCT-116, read-out: IC50 HCT-116), the IC50 worked out at 4.18 ± 0.2 µM. For the same molecule, the IC50 in data set [3] (MCF7, read-out: IC50 MCF-7) was found to be 4.97 ± 0.1 µM. The molecule also showed an IC50 in data set [4] of 0.146 µM. The IC50 in data set [5] (read-out: IC50 values ranging (all tested cell lines)) is 1.78 to 9.19 µM.

The molecule `COc1ccc2nc(Cl)c(-c3cc(-c4ccc(Cl)cc4)nc(=O)[nH]3)cc2c1` [Compound 32, 6–(2-Chloro-6-methoxyquinolin-3-yl)-4–(4-chlorophenyl)pyrimidin-2(1H)-one] displayed a melting point of 180 to 181 °C. The IC50 in data set [1] (setting [6]) turned out to be 8.16 ± 0.2 µM. In data set [2] (setting [7]), the IC50 was found to be 6.48 ± 0.2 µM. In data set [3] (setting [8]), the IC50 stood at 9.89 ± 0.4 µM. This molecule also yielded an IC50 in data set [4] of 0.0105 µM. Also, the IC50 in data set [5] (setting [10]) fell in the range of 6.48 to 10.3 µM.

Turning to `COc1ccc2nc(Cl)c(C3CC(c4ccc(N)cc4)=NO3)cc2c1` (stereo not drawn) [Compound 12, 4-[5–(2-Chloro-6-methoxyquinolin-3-yl)-4,5-dihydroisoxazol-3-yl]aniline], the melting point lay in the range of 127 to 128 °C. The IC50 in data set [1] (setting [6]) amounted to 35.4 ± 1.8 µM. Moreover, the IC50 in data set [2] (setting [7]) was found to be 40.5 ± 2.4 µM. Moreover, the IC50 in data set [3] (setting [8]) came to 45.5 ± 2.8 µM. In data set [5] (setting [9]), the half-maximal inhibitory concentration (IC50) lay within 22.4 to 45.5 µM.

Consider `COc1ccc2nc(Cl)c(C3CC(c4ccc(Cl)cc4)=NN3)cc2c1` (stereo not drawn) [Compound 8, 2-Chloro-3-[3–(4-chlorophenyl)-4,5-dihydro-1H-pyrazol-5-yl]-6-methoxyquinoline], for which the melting point was 118 to 119 °C. Moreover, in data set [1] (setting [6]), the IC50 stood at 30.9 ± 1.2 µM. Besides, the IC50 in data set [2] (setting [7]) is 22.4 ± 1.1 µM. The IC50 in data set [3] (setting [8]) worked out at 33.5 ± 2.4 µM. Moreover, the 50% inhibitory concentration (IC50) in data set [5] (setting [9]) lay in the range of 22.4 to 45.5 µM.

Consider `COc1ccc2nc(Cl)c(-c3cc(-c4ccc(Cl)cc4)nc(=S)[nH]3)cc2c1` [Compound 26, 6–(2-Chloro-6-methoxyquinolin-3-yl)-4–(4-chlorophenyl)pyrimidine-2(1H)-thione], for which the melting point fell in the range of 155 to 156 °C. The IC50 in data set [1] (setting [6]) came out at 3.62 ± 0.1 µM. In addition, the IC50 in data set [2] (setting [7]) amounted to 2.24 ± 0.2 µM. The IC50 in data set [3] (setting [8]) was 5.55 ± 0.2 µM. This molecule returned an IC50 in data set [4] of 0.0345 µM. Further, the IC50 in data set [5] (setting [9]) fell in the range of 1.78 to 9.19 µM.

Consider `COc1ccc(/C=C\c2cc(OC)c(OC)c(OC)c2)cc1O` [CA-4, combretastatin A- 4, reference compound], for which the IC50 in data set [4] stood at […].

Turning to `COc1ccc2nc(Cl)c(/C=C/C(=O)c3ccc(N)cc3)cc2c1` [Compound 6, (E)-1–(4-Aminophenyl)-3–(2-chloro-6-methoxyquinolin-3-yl)prop-2-en-1-one], the melting point lay within 120 to 121 °C. In data set [1] (setting [6]), the IC50 came out at 32.9 ± 2.1 µM. For the same molecule, the IC50 in data set [2] (setting [7]) was 28.6 ± 1.7 µM. For the same molecule, in data set [3] (setting [8]), the concentration for half-maximal inhibition (IC50) turned out to be 37.3 ± 2.1 µM. In addition, the IC50 in data set [5] (setting [9]) was 22.4 to 45.5 µM.

Turning to `COc1ccc2nc(Cl)c(-c3cc(-c4cc(OC)c(OC)c(OC)c4)nc(=S)[nH]3)cc2c1` [Compound 28, 6–(2-Chloro-6-methoxyquinolin-3-yl)-4–(3,4,5-trimethoxyphenyl)pyrimidine-2(1H)-thione], the melting point was 141 to 142 °C. Besides, in data set [1] (setting [6]), the IC50 worked out at 5.47 ± 0.2 µM. For the same molecule, the IC50 in data set [2] (setting [7]) worked out at 5.85 ± 0.3 µM. The IC50 in data set [3] (setting [8]) turned out to be 7.34 ± 0.2 µM. In data set [4], this molecule gave an IC50 of 0.0374 µM. Further, the IC50 in data set [5] (setting [9]) is 1.78 to 9.19 µM.
